# Reference: PMC9131456, “Structure-Based Discovery of Lipoteichoic Acid Synthase Inhibitors” (Journal of Chemical Information and Modeling, 2022)
# Experiments:
# [1] = test system: S. aureus (strain Newman); assay: Antimicrobial microdilution broth assay (growth inhibition); format: cell-based; details: S. aureus strain Newman growth, OD600nm after 20 h at 37 °C, MH2 broth, mean ± s.e.m., n = 3
# Protocol: All the compounds tested in this study were dissolved in dimethyl sulfoxide (DMSO) at an initial stock concentration of 20 mM and stored at −20 °C. These compounds were tested for their antimicrobial activity using the microdilution broth method[66] following the protocol described by Richter et al.[30] Briefly, overnight cultures of S. aureus (strain Newman) grown at 37 °C in cation-adjusted Mueller Hinton II (MH2) broth were adjusted to an OD600nm of 0.6 before back-diluted with a factor of 1:2000 with the same broth. After that, 200 μL of the diluted bacterial culture were dispensed into each well of 96-well plates supplemented with the compounds to the desired concentrations. The plates were then sealed with a moisture membrane barrier and incubated statically for 20 h at 37 °C. After that, the OD600nm values of the cultures in each well were measured using a CLARIOstar microplate reader (BMG Labtech). The procedures for the potentiation assays were by large the same as described above with some variations. In such assays, MRSA strain COL was grown in the 96-well plates supplemented with different concentrations of compound 9 with methicillin, carbenicillin, or polymyxin B in a checkerboard format. Their synergistic effects were quantified by OD600nm measurements using a CLARIOstar microplate reader (BMG Labtech).
# [2] = test system: LTA production in S. aureus (strain RN4220); assay: Western blot (immunoblotting) of LTA in S. aureus cell extracts; format: cell-based; details: for LTA production: Western blot of S. aureus cell extracts, 10 μM in Figure S14, 100 μM for compound 8
# Protocol: The procedures of LTA detection using Western Blot had previously been reported by Gründling et al.[52] To determine the effect of the compounds on LTA production, 10 mL cultures of S. aureus (strain RN4220) in MH2 broth were incubated in an orbital shaker at 37 °C with either the compounds or DMSO. When the control cultures had reached an OD600nm ∼ 1, the bacteria were pelleted and the OD600nm of the cultures normalized by resuspension with the appropriate amount of MH2 broth. Subsequently, 1 mL from each cultures was mixed with 0.5 mL of 0.1 mm glass beads, and the bacteria were lyzed by vortexing at 4 °C for 45 min. After lysis, glass beads were removed by centrifugation at 200g, and the supernatants were transferred to a new tube. The membrane-associated LTA from each culture were pelleted by an additional centrifugation step of the supernatant at 16,000g for 15 min before resuspension in 30 μL of 2× SDS. The samples were boiled at 80 °C for 20 min, and the solubilized fractions were loaded onto 15% SDS-polyacrylamide gels prior to electrophoresis at 120 V for 1.5 h. The LTA on the gels were electrotransferred onto FL-immobilon PVDF membranes at 25 V for another 1.5 h. After the electrotransfer, the membranes were blocked with 5% skimmed milk for 1 h and incubated with the antimouse LTA antibody (clone G43J, Thermo Fisher Scientific; 1:1000 dilution) overnight at 4 °C. After washing, the membranes were incubated with antimouse IRDye 680RD (1:10,000 dilution) for 1 h, washed, and visualized using the Odyssey CLx Imaging System.
# IsaA = assay: SDS-PAGE and LC/MS-MS analysis of the lysate of treated S. aureus; format: cell-based; details: S. aureus treated with 100 μM compound, SDS-PAGE
# HEK293 cells = assay: LDH release cytotoxicity assay; format: cell-based, human; details: 200 μM compound, 24 h
# Protocol: The human embryonic kidney (HEK293) cells were maintained in Dulbecco’s modified Eagle medium (DMEM) supplemented with 10% fetal bovine serum and 100 units/mL of penicillin–streptomycin. For the cell viability assays, cells were seeded onto 96-well plates at a density of 4 × 10^4 cells/well and grown at 37 °C at 5% CO2. After incubating the cells for 24 h, the culture media were replaced with fresh DMEM supplemented with 200 μM of the compounds 1771, compound 4, compound 8, and compound 9 and incubated further for an additional 24 h. The cytotoxicity of these drugs was measured using the LDH Cytotoxicity Assay Kit according to the manufacturer’s instruction (Thermo Scientific). The absorbance at 490 nm was measured with a CLARIOstar microplate reader (BMG Labtech), and the reference wavelength was set at 630 nm.
# wild-type eLtaS = molecular target: T1, wild-type eLtaS (Staphylococcus aureus, UniProt Q2G093); assay: Isothermal titration calorimetry, wild-type eLtaS; format: binding, S. aureus; details: ITC, 25 °C, wild-type eLtaS titrated into 10 μM inhibitor
# T1 construct: LtaS is a transmembrane protein with a large extracellular catalytic domain (denoted as eLtaS); His-tag; made in house; host or cells: E. coli (Rosetta; plasmid pProEX-eLtaS from strain ANG571)
# Protocol: Each of the eLtaS proteins were purified from 6 L of E. coli cultures that were grown with aeration in LB medium supplemented with 200 μg/mL of carbenicillin and 34 μg/mL of chloramphenicol at 37 °C. When the cultures reached an OD600nm of about 0.6, protein expression was induced with 1 mM IPTG final concentration at 21 °C overnight. Later, the bacteria were harvested by centrifugation at 11,899g, and the bacterial pellets were resuspended with lysis buffer (50 mM Trizma-HCl, pH 7.5, 300 mM NaCl, 5% glycerol, 10 mM imidazole, 5 mM β-mercaptoethanol). The bacterial pellets were lyzed by three passages through a high-pressure emulsifier, and the lysates were centrifuged at 47,596g for 30 min at 4 °C. The resulting supernatants containing the His-tagged eLtaS proteins were filtered with a 0.22 μm filter before being loaded onto a 5 mL Ni-NTA column using an ÄKTApure protein purification system. The bound proteins were subsequently washed with lysis buffer, eluted using the elution buffer (50 mM Trizma-HCl, pH 7.5, 300 mM NaCl, 5% glycerol, and 300 mM imidazole), and dialyzed twice using the dialysis buffer [25 mM Trizma-HCl, pH 7.5, 100 mM NaCl, 10% glycerol, 1 mM ethylenediaminetetraacetic acid (EDTA)]. After dialysis, protein purity was confirmed to be >90% using SDS-PAGE. Proteins were then concentrated, snap-frozen in liquid N2, and stored at −80 °C prior to usage. All four eLtaS proteins were subjected to circular dichroism analysis, and their exact masses were determined using MS.
# The thawed eLtaS proteins were dialyzed using D-Tube Dialyzer Mini (EMD Millipore) in 20 mM Trizma-HCl pH 7.5, 100 mM NaCl with Chelex 100 (Sigma-Aldrich) for 1.5 h twice on the same day prior to the ITC experiments. After dialysis, the eLtaS proteins were centrifuged at 20,000g at 10 °C for 10 min. The supernatants were transferred to new microcentrifuge tubes and diluted to 100 μM using the same buffer as above with an addition of 0.1% (v/v) DMSO. Meanwhile, the eLtaS inhibitors were diluted to 10 μM using the same buffer and maintaining 0.1% (v/v) DMSO. The eLtaS proteins were titrated into the main cell containing the inhibitors using a VP-ITC at 25 °C. The injection parameters were set as follows: a reference power of 15 μcal/s, an initial injection of 3 μL over a duration of 3.6 s, and then subsequent injections of 10 μL over a duration of 12 s. All injections were spaced with 240 s with a filter period of 2 s. Data were first analyzed in NITPIC[69] for baseline calculations and then fit for thermodynamic parameters using the OneSite model in Origin 7.0 software.
# His416Ala eLtaS = molecular target: T2, His416Ala eLtaS (Staphylococcus aureus, UniProt Q2G093, H416A); assay: Isothermal titration calorimetry, His416Ala eLtaS; format: binding, S. aureus; details: ITC, compared with wild-type eLtaS
# T2 construct: LtaS is a transmembrane protein with a large extracellular catalytic domain (denoted as eLtaS); His-tag; made in house; host or cells: E. coli Rosetta 2 (DE3), pET19m
# Text: (§1) The plasmid [Rosetta pProEX-eLtaS] from E coli strain ANG571 was extracted using the QIAprep Spin Miniprep Kit. Meanwhile, the genes encoding the mutant LtaS with mutations His416Ala, His347Ala, and Arg356Ala were extracted from the strains ANG1115, ANG1175, and ANG1178, respectively, using the QIAamp DNA Mini Kit. These genes were amplified using PCR, cut with NdeI/BamHI, and ligated into a pET19m transformed into E. coli Rosetta 2 (DE3) strain.
# (§2) Each of the eLtaS proteins were purified from 6 L of E. coli cultures that were grown with aeration in LB medium supplemented with 200 μg/mL of carbenicillin and 34 μg/mL of chloramphenicol at 37 °C. When the cultures reached an OD600nm of about 0.6, protein expression was induced with 1 mM IPTG final concentration at 21 °C overnight. […] All four eLtaS proteins were subjected to circular dichroism analysis, and their exact masses were determined using MS.
# (§3) The thawed eLtaS proteins were dialyzed using D-Tube Dialyzer Mini (EMD Millipore) in 20 mM Trizma-HCl pH 7.5, 100 mM NaCl with Chelex 100 (Sigma-Aldrich) for 1.5 h twice on the same day prior to the ITC experiments. […] Data were first analyzed in NITPIC[69] for baseline calculations and then fit for thermodynamic parameters using the OneSite model in Origin 7.0 software.
# His347Ala eLtaS = molecular target: T3, His347Ala eLtaS (Staphylococcus aureus, UniProt Q2G093, H347A); assay: Isothermal titration calorimetry, His347Ala eLtaS; format: binding, S. aureus; details: ITC, compared with wild-type eLtaS
# T3 construct: LtaS is a transmembrane protein with a large extracellular catalytic domain (denoted as eLtaS); His-tag; made in house; host or cells: E. coli Rosetta 2 (DE3), pET19m
# Text: as §1, §2, §3
# Arg356Ala eLtaS = molecular target: T4, Arg356Ala eLtaS (Staphylococcus aureus, UniProt Q2G093, R356A); assay: Isothermal titration calorimetry, Arg356Ala eLtaS; format: binding, S. aureus; details: ITC, compared with wild-type eLtaS
# T4 construct: LtaS is a transmembrane protein with a large extracellular catalytic domain (denoted as eLtaS); His-tag; made in house; host or cells: E. coli Rosetta 2 (DE3), pET19m
# Text: as §1, §2, §3
# [3] = test system: S. aureus (strain Newman); assay: Non-lethal S. aureus lung infection mouse model; format: in vivo, BALB/c female mice; details: 300 μg intranasally, infected BALB/c mice
# Text: All in vivo experiments were done at the University of Liverpool under the UK Animals (Scientific Procedures) Act 1986 guidelines. The protocols were approved by the UK Home Office and by the University of Liverpool Animal Welfare and Ethics Committee. Six to eight week old BALB/c female mice (Charles River, UK) were used in the study after being left to acclimatize for a minimum of 7 days prior to experimentation. Mice were intranasally infected with 5 × 10^7 CFU of the S. aureus (strain Newman) in 50 μL of sterile phosphate-buffered saline (PBS). The bacterial dose was prepared by incubating 50 μL of an overnight culture in brain heart infusion (BHI) broth (Oxoid, Thermo Fisher Scientific, UK) into 5 mL of fresh BHI. Once the culture reached an OD600 = 2–3, the bacterial numbers were adjusted to the desired dose using sterile PBS. Three hours postinfection, mice were intranasally treated with either 50 μL of sterile PBS (control) or with 300 μg of compounds 1771 and compound 4 dissolved in 50 μL of sterile PBS. The final DMSO concentration was 5%, and the PBS control also contained 5% DMSO. Mice were culled 24 h postinfection; lungs were collected, homogenized, and serially diluted to determine CFU counts.[70] Significant differences were determined using the unpaired two-tailed Student t-test (p = 0.0013).
# LTA synthase (LtaS) = test system: LTA synthase (LtaS); parameters: method as in PMID 23401520; details: by inhibiting LtaS; cited from earlier work
# [4] = parameters: method as in PMID 23401520; details: lethal sepsis mouse model; cited from earlier work
# [5] = Staphylococcus aureus, NEWMAN, 20 h
smiles,measurement,setting,value
O=C(COC(=O)/C=C/c1ccc2ccccc2n1)Nc1nnc(-c2ccccc2)o1 [Compound 7],IC50,[1],12.4 ± 1.9 µM
O=C(Nc1ccc(Oc2ccc(NC(=O)Nc3ccc([N+](=O)[O-])cc3)cc2)cc1)Nc1ccc([N+](=O)[O-])cc1 [Compound 8],IC50,[1],29.4 µM
same,IC50,[1]; [5],29.4 µM
same,LTA production,[2],did not decrease LTA production
same,electrophoretic mobility of the LTA extracted from treated S. aureus,"[2]; Western blot, 100 μM compound",decreased electrophoretic mobility and higher heterogeneity
same,"protein upregulation in the lysate (IsaA, a peptidoglycan hydrolase)",IsaA,upregulated a 24 kDa protein
same,cytotoxicity (LDH release),HEK293 cells,cytotoxic
Cc1cccc(COc2ccccc2C(=O)OCC(=O)Nc2nnc(-c3ccccc3)o2)c1 [Compound 6],IC50,[1],11.1 ± 0.49 µM
same,LTA production,[2],able to reduce LTA production
O=C(COC(=O)CSC(c1ccccc1)c1ccccc1)Nc1nnc(-c2ccccc2)o1 [Compound 5],IC50,[1],17.5 ± 1.08 µM
Cc1csc(SCc2ccccc2C(=O)OCC(=O)Nc2nnc(-c3ccccc3)o2)n1 [Compound 3],IC50,[1],13.4 ± 0.35 µM
same,LTA production,[2],able to reduce LTA production
O=C(COC(=O)Cc1coc2ccc3ccccc3c12)Nc1nnc(-c2ccccc2)o1 [compound 1771],IC50,[1],14.9 ± 1.59 µM
same,IC50,[1]; [5],14.5 µM
same,Kd,wild-type eLtaS,0.457 ± 0.0071 µM
same,binding affinity to the His416Ala eLtaS variant,His416Ala eLtaS,slight increase in binding affinities
same,binding to the His347Ala eLtaS variant,His347Ala eLtaS,abolished
same,binding affinity to the Arg356Ala eLtaS variant,Arg356Ala eLtaS,slight increase in binding affinities
same,tolerability in mice,[3],did not tolerate the latter well
same,LTA synthesis,LTA synthase (LtaS),able to suppress LTA synthesis
same,in vivo stability,[4],lost activity over time due to in vivo instability
same,survival of infected mice,[4],temporarily prolong the survival of the infected mice
COc1ccccc1Nc1ncccc1C(=O)OCC(=O)Nc1nnc(-c2ccccc2)o1 [Compound 2],IC50,[1],12.3 ± 0.38 µM
